Assay: xn = mol fraction of the nth substance listed
Settings: 101 kPa

Cc1ccc(O)cc1 + C1COCCO1
viscosity [mPa·s]
Settings | 303.15 K | 308.15 K | 313.15 K | 318.15 K
x1 = 0.0835 | 1.335 | 1.184 | 1.097 | 0.9967
x1 = 0.1701 | 1.476 | 1.319 | 1.201 | 1.106
x1 = 0.26 | 1.752 | 1.563 | 1.422 | 1.289
x1 = 0.3534 | 2.165 | 1.887 | 1.71 | 1.542
x1 = 0.4504 | 2.798 | 2.473 | 2.175 | 1.964
x1 = 0.5515 | 3.65 | 3.108 | 2.733 | 2.409
x1 = 0.6567 | 4.783 | 4.09 | 3.524 | –
x1 = 0.7663 | 6.413 | 5.276 | 4.492 | 3.804
x1 = 0.8807 | 8.261 | 5.704 | 5.704 | 4.834
x2 = 0.1 | – | 6.901 | – | –
x2 = 0.2 | – | 5.697 | – | –
x2 = 0.3 | – | 4.498 | – | –
x2 = 0.4 | – | 3.461 | – | –
x2 = 0.5 | – | 2.724 | – | –
x2 = 0.6 | – | 2.14 | – | –
x2 = 0.7 | – | 1.705 | – | –
x2 = 0.8 | – | 1.401 | – | –
x2 = 0.9 | – | 1.142 | – | –

Cc1cccc(C)c1 + CC(C)(C)O
308.15 K
Settings | viscosity [mPa·s]
x2 = 0.0642 | 0.542
x2 = 0.1265 | 0.59
x2 = 0.2068 | 0.633
x2 = 0.3029 | 0.667
x2 = 0.3766 | 0.72
x2 = 0.4301 | 0.756
x2 = 0.4992 | 0.793
x2 = 0.5983 | 0.909
x2 = 0.6924 | 1.013
x2 = 0.7966 | 1.296
x2 = 0.908 | 1.731

OC1COCOC1 + OCC(O)CO
viscosity [mPa·s]
Settings | x1 = 0.0998 | x1 = 0.2002 | x1 = 0.3 | x1 = 0.3996 | x1 = 0.5003 | x1 = 0.5984 | x1 = 0.7011 | x1 = 0.8002 | x1 = 0.9
298.15 K | 832.9 | 733.8 | 627.8 | 520 | 421.6 | 329.6 | 242.5 | 168.5 | 92.07
308.15 K | 378.7 | 330.3 | 278.4 | 227 | 181 | 134.8 | 99.8 | 67.79 | 40.63
318.15 K | 190 | 163.4 | 139 | 110.6 | 85.95 | 62.08 | 44.85 | 32.54 | 20.88

Reference: the CheMixHub viscosity set
